Laboratory results taken from publication PMC5855875, “Teixobactin analogues reveal enduracididine to be non-essential for highly potent antibacterial activity and lipid II binding” (Chemical Science, 2017).
Values after ≈ are worked out from the molar mass of the structure shown. Bridge positions count the residues as written; N and C are the ends. Square brackets hold non-standard residues; d marks the D form. Peptide text beside a SMILES is read from it. d(aIle) = CC[C@H](C)[C@@H](N)C(=O)O; dNMeF = CN[C@H](Cc1ccccc1)C(=O)O

Assays:
[1] = test system: MRSA 2: MRSA DR 42412 (sputum); experiment: microbe, parasite or virus in culture; details: MRSA 2; MHB containing polysorbate 80 (0.002%, v/v); 37 °C, 24 h
Description: (§1) VIII. MIC testing (extended panel)
(§2) Bacterial cultures were grown overnight i n Mueller-Hinton Agar (MHA) plates and adjusted to a final concentration of 10 5 – 106 CFU/ml. 100 µl of inoculum in Meuller -Hinton broth (MHB) was mixed with equal volume of peptides (dissolved in MHB) at 2x their concentration in a 96 well plate. In parallel experiments, MIC values were determined in the media containing polysorbate 80 (0 .002%, v/v) to […]
(§3) prevent non-specific adsorption of the peptides to plastic surfaces. The final peptides concentrations […]
(§4) Positive and negative controls contained 200 µl of inoculum without any peptide dissolved in broth, respectively. The 96 well plates were then incubated at 37 °C for 24 h. […]
(§5) 80. Strain information: MRSA 1: MRSA ATCC 700699, MRSA 2: MRSA DR 42412 (sputum), MRSA
(§6) 3: MRSA DM21455 (eye). […] Staphylococcus aureus ATCC

[2] = test system: VRE 1: VRE ATCC 700802; experiment: organism not typed; details: VRE 1; MHB containing polysorbate 80 (0.002%, v/v); 37 °C, 24 h
Description: as §1, §2, §3, §4, §5, §6

[3] = test system: VRE 2: VRE ATCC 29212; experiment: organism not typed; details: VRE 2; MHB containing polysorbate 80 (0.002%, v/v); 37 °C, 24 h
Description: as §1, §2, §3, §4, §5, §6

[4] = test system: MRSA 1: MRSA ATCC 700699; experiment: microbe, parasite or virus in culture; details: MRSA 1; MHB containing polysorbate 80 (0.002%, v/v); 37 °C, 24 h; two independent duplicates
Description: as §1, §2, §3
(§7) Positive and negative controls contained 200 µl of inoculum without any peptide dissolved in broth, respectively. The 96 well plates were then incubated at 37 °C for 24 h.
(§8) All the experiments were performed in two independent duplicates and the MIC was determined as the […]
(§9) Minimum bactericidal concentration
(§10) The lowest concentration in which no visible colonies could be detected was taken as the MBC.
as §5, §6

[5] = test system: Staphylococcus aureus ATCC 29213; experiment: microbe, parasite or virus in culture; details: S. aureus ATCC 29213; MHB containing polysorbate 80 (0.002%, v/v); 37 °C, 24 h
Description: as §1, §2, §3, §7, §8, §9, §10, §5, §6

[6] = test system: MRSA 3: MRSA DM21455 (eye); experiment: microbe, parasite or virus in culture; details: MRSA 3; MHB containing polysorbate 80 (0.002%, v/v); 37 °C, 24 h
Description: as §1, §2, §3, §7, §8, §9, §10, §5, §6

[7] = test system: MRSA ATCC 33591; experiment: microbe, parasite or virus in culture; details: for times lower antibacterial activity than Arg10-teixobactin: from MIC against MRSA ATCC 33591
Description: were grown in Mueller Hinton broth (Oxoid) in triplicate. All incubations were at 37°C. Dilutions were carried out in triplicate. 100 µl of autoclaved Mueller Hinton broth was added to wells 2-12 in a 96-well plate. 200 µl of the peptide was added to well one at a concentration of 256 µg/mL. 100µl of peptide in well one was taken up and pipetted into well two. The mixture was then mixed via pipetting before 100µl was taken up and pipetted into well three. This process was repeated up to well 11. Once […]
peptide present. Thus, the concentrations (in µg/mL) were: 256, 128, 64, 32, 16, 8, 4, 2, 1, 0.5, 0.25 and no peptide present. Each well was then inoculated with 100µl of bacteria that had been diluted to an […]
This was repeated three times. The 96-well plates were then incubated at 37°C for 24 hours. The MIC was determined to be the lowest concentration at which there was no growth visible. […]
was repeated at an altered initial concentration of 64 µg/ml. Therefore, the new concentrations for MIC […]
as §1, §2

Row | MIC ([7]; ATCC 33591, 24 h) | Structure (SMILES) | other results
1 | 1–2 μg mL^–1 | CC[C@H](C)[C@H](NC(=O)[C@@H](Cc1ccccc1)NC)C(=O)N[C@@H](C)C(=O)N[C@H](CCC(N)=O)C(=O)N[C@@H](C(=O)N[C@H](C(=O)N[C@@H](CO)C(=O)N[C@H]1C(=O)N[C@@H](C)C(=O)N[C@@H](CCCNC(=N)N)C(=O)N[C@@H]([C@@H](C)CC)C(=O)O[C@H]1C)[C@@H](C)CC)[C@@H](C)CC [Compound 3, Ala3-Arg10-teixobactin] (H-[dNMeF]IA[dQ][d(aIle)]IS[dT]ARI; ester 8-C) | –
2 | 2–4 μg mL^–1 | CC[C@H](C)[C@H](NC(=O)[C@@H](Cc1ccccc1)NC)C(=O)N[C@@H](CO)C(=O)N[C@H](C)C(=O)N[C@@H](C(=O)N[C@H](C(=O)N[C@@H](CO)C(=O)N[C@H]1C(=O)N[C@@H](C)C(=O)N[C@@H](CCCNC(=N)N)C(=O)N[C@@H]([C@@H](C)CC)C(=O)O[C@H]1C)[C@@H](C)CC)[C@@H](C)CC [Compound 4, D-Ala4-Arg10-teixobactin] (H-[dNMeF]IS[dA][d(aIle)]IS[dT]ARI; ester 8-C) | –
3 | 16–32 μg mL^–1 | CC[C@H](C)[C@H](NC(=O)[C@@H](Cc1ccccc1)NC)C(=O)N[C@@H](CO)C(=O)N[C@H](CCC(N)=O)C(=O)N[C@@H](C(=O)N[C@H](C(=O)N[C@@H](C)C(=O)N[C@H]1C(=O)N[C@@H](C)C(=O)N[C@@H](CCCNC(=N)N)C(=O)N[C@@H]([C@@H](C)CC)C(=O)O[C@H]1C)[C@@H](C)CC)[C@@H](C)CC [Compound 7, Ala7-Arg10-teixobactin] (H-[dNMeF]IS[dQ][d(aIle)]IA[dT]ARI; ester 8-C) | –
4 | 32 μg mL^–1 | CC[C@H](C)[C@H](NC(=O)[C@@H](Cc1ccccc1)NC)C(=O)N[C@@H](CO)C(=O)N[C@H](CCC(N)=O)C(=O)N[C@@H](C(=O)N[C@H](C(=O)N[C@@H](CO)C(=O)N[C@H]1C(=O)N[C@@H](C)C(=O)N[C@H](C)C(=O)N[C@@H]([C@@H](C)CC)C(=O)O[C@H]1C)[C@@H](C)CC)[C@@H](C)CC [Compound 9, D-Ala10-teixobactin] (H-[dNMeF]IS[dQ][d(aIle)]IS[dT]A[dA]I; ester 8-C) | times lower antibacterial activity than Arg10-teixobactin [7]: 16 times
5 | 2 μg mL^–1 | CC[C@H](C)[C@H](NC(=O)[C@@H](Cc1ccccc1)NC)C(=O)N[C@@H](CO)C(=O)N[C@H](CCC(N)=O)C(=O)N[C@@H](C(=O)N[C@H](C(=O)N[C@@H](CO)C(=O)N[C@H]1C(=O)N[C@@H](C)C(=O)NCC(=O)N[C@@H]([C@@H](C)CC)C(=O)O[C@H]1C)[C@@H](C)CC)[C@@H](C)CC [Compound 10, Gly10-teixobactin] (H-[dNMeF]IS[dQ][d(aIle)]IS[dT]AGI; ester 8-C) | –
6 | >128 μg mL^–1 | CC[C@H](C)[C@H](NC(=O)[C@H](NC(=O)[C@@H](CCC(N)=O)NC(=O)[C@H](CO)NC(=O)[C@H](C)NC(=O)[C@@H](Cc1ccccc1)NC)[C@@H](C)CC)C(=O)N[C@@H](CO)C(=O)N[C@H]1C(=O)N[C@@H](C)C(=O)N[C@@H](CCCNC(=N)N)C(=O)N[C@@H]([C@@H](C)CC)C(=O)O[C@H]1C [Compound 2, Ala2-Arg10-teixobactin] (H-[dNMeF]AS[dQ][d(aIle)]IS[dT]ARI; ester 8-C) | –
7 | 2 μg mL^–1 | CC[C@H](C)[C@H](NC(=O)[C@@H](Cc1ccccc1)NC)C(=O)N[C@@H](CO)C(=O)N[C@H](CCC(N)=O)C(=O)N[C@@H](C(=O)N[C@H](C(=O)N[C@@H](CO)C(=O)N[C@H]1C(=O)N[C@@H](C)C(=O)N[C@@H](Cc2ccccc2)C(=O)N[C@@H]([C@@H](C)CC)C(=O)O[C@H]1C)[C@@H](C)CC)[C@@H](C)CC [Compound 15, Phe10-teixobactin] (H-[dNMeF]IS[dQ][d(aIle)]IS[dT]AFI; ester 8-C) | –

Further lines, the molecule ahead of its results:

Row | Structure (SMILES) | MIC ([7]; ATCC 33591, 24 h) | other results
8 | CCCCCCCCCC(=O)N[C@@H](Cc1c[nH]c2ccccc12)C(=O)N[C@H](CC(N)=O)C(=O)N[C@@H](CC(=O)O)C(=O)N[C@@H]1C(=O)NCC(=O)N[C@@H](CCCN)C(=O)N[C@@H](CC(=O)O)C(=O)N[C@H](C)C(=O)N[C@@H](CC(=O)O)C(=O)NCC(=O)N[C@H](CO)C(=O)N[C@@H]([C@H](C)CC(=O)O)C(=O)N[C@@H](CC(=O)c2ccccc2N)C(=O)O[C@@H]1C [Daptomycin, reference compound] | – | MIC (with polysorbate 80) [1]: 0.5 µg/mL (≈ 0.309 µM); MIC (with polysorbate 80) [2]: 0.5 µg/mL (≈ 0.309 µM); MIC (with polysorbate 80) [3]: 0.5 µg/mL (≈ 0.309 µM); MIC (with polysorbate 80) [4]: 0.5 µg/mL (≈ 0.309 µM); MIC (with polysorbate 80) [5]: 0.25 µg/mL (≈ 0.154 µM); MIC (with polysorbate 80) [6]: 0.5 µg/mL (≈ 0.309 µM)
9 | CC[C@H](C)[C@H](NC(=O)[C@@H](Cc1ccccc1)NC)C(=O)N[C@@H](CO)C(=O)N[C@H](CCC(N)=O)C(=O)N[C@@H](C(=O)N[C@@H](C)C(=O)N[C@@H](CO)C(=O)N[C@H]1C(=O)N[C@@H](C)C(=O)N[C@@H](CCCNC(=N)N)C(=O)N[C@@H]([C@@H](C)CC)C(=O)O[C@H]1C)[C@@H](C)CC [Compound 6, Ala6-Arg10-teixobactin] (H-[dNMeF]IS[dQ][d(aIle)]AS[dT]ARI; ester 8-C) | >128 μg mL^–1 | –
10 | CC[C@H](C)[C@H](NC(=O)[C@@H](C)NC(=O)[C@@H](CCC(N)=O)NC(=O)[C@H](CO)NC(=O)[C@@H](NC(=O)[C@@H](Cc1ccccc1)NC)[C@@H](C)CC)C(=O)N[C@@H](CO)C(=O)N[C@H]1C(=O)N[C@@H](C)C(=O)N[C@@H](CCCNC(=N)N)C(=O)N[C@@H]([C@@H](C)CC)C(=O)O[C@H]1C [Compound 5, D-Ala5-Arg10-teixobactin] (HELM PEPTIDE1{[CN[C@H](Cc1ccccc1)C(=O)[*:2]].I.S.[dQ].[dA].I.S.[C[C@H](O[*:3])[C@@H](N[*:1])C(=O)[*:2]].A.R.I}$PEPTIDE1,PEPTIDE1,8:R3-11:R2$$$V2.0) | 64–128 μg mL^–1 | –
11 | CC[C@H](C)[C@H](NC(=O)[C@@H](Cc1ccccc1)NC)C(=O)N[C@@H](CO)C(=O)N[C@H](CCC(N)=O)C(=O)N[C@@H](C(=O)N[C@H](C(=O)N[C@@H](CO)C(=O)N[C@H]1C(=O)N[C@@H](C)C(=O)N[C@@H](CO)C(=O)N[C@@H]([C@@H](C)CC)C(=O)O[C@H]1C)[C@@H](C)CC)[C@@H](C)CC [Compound 14, Ser10-teixobactin] (H-[dNMeF]IS[dQ][d(aIle)]IS[dT]ASI; ester 8-C) | – | MIC ([7]; MRSA ATCC 33591, Mueller Hinton broth (Oxoid), peptides in DMSO containing 0.002% polysorbate 80, 37°C, 24 h, triplicate): 16 μg mL^–1; times lower antibacterial activity than Arg10-teixobactin [7]: 8 times
12 | CC[C@H](C)[C@H](NC(=O)[C@@H](C)NC(C)=O)C(=O)N[C@@H](CO)C(=O)N[C@H](CCC(N)=O)C(=O)N[C@@H](C(=O)N[C@H](C(=O)N[C@@H](CO)C(=O)N[C@H]1C(=O)N[C@@H](C)C(=O)N[C@@H](CCCNC(=N)N)C(=O)N[C@@H]([C@@H](C)CC)C(=O)O[C@H]1C)[C@@H](C)CC)[C@@H](C)CC [Compound 1, Ac-D-Ala1-Arg10-teixobactin] | >128 μg mL^–1 | –
